From ChEMBL document CHEMBL3885861, “Open TG-GATES”

Species on record: Rattus norvegicus
Experiment: Open TG-GATES - Regimen: Daily Repeat
Type: toxicity, organism-based, Sprague-Dawley
Set-up: regimen Daily Repeat, gender Male, age 6 weeks
Conditions: in vivo, po, route gavage; for APTT / Bas / Eos / Fbg / Hb / Ht / Lym / MCH / MCHC / MCV / Mono / Neu / PT / Plat / RBC / Ret / WBC: tissue Blood; for KIDNEY_L / KIDNEY_R / KIDNEY_TOTAL: tissue Kidney; for LIVER: tissue Liver; for A/G / ALP / ALT / AST / BUN / CRE / Ca / Cl / DBIL / GLC / IP / K / LDH / Na / PL / RALB / TBIL / TC / TG / TP / gamma-GTP: tissue Plasma
[1] = 0 mg/kg, 72 h, dose level Control, time 3 day
[2] = 0 mg/kg, […], dose level Control, time 7 day
[3] = 0 mg/kg, […], dose level Control, time 14 day
[4] = 0 mg/kg, […], dose level Control, time 28 day
[5] = 400 mg/kg, 72 h, dose level Low, time 3 day
[6] = 400 mg/kg, […], dose level Low, time 7 day
[7] = 400 mg/kg, […], dose level Low, time 14 day
[8] = 400 mg/kg, […], dose level Low, time 28 day

CCO [ALCOHOL]
TERMINAL_BW [1]: 232.9 g
APTT [1]: 17.2 s
Bas [1]: 0%
Eos [1]: 1%
Fbg [1]: 205.6 mg/dL
Hb [1]: 14.1 g/dL
Ht [1]: 41.9%
Lym [1]: 77%
MCH [1]: 21.5 pg
MCHC [1]: 33.7%
MCV [1]: 63.8 fL
Mono [1]: 6%
Neu [1]: 16%
PT [1]: 11 s
Plat [1]: 112.5 x10_4/uL
RBC [1]: 656.4 x10_4/ul
Ret [1]: 6.7%
WBC [1]: 82.3 x10_2/uL
KIDNEY_L [1]: 1 g
KIDNEY_R [1]: 1 g
KIDNEY_TOTAL [1]: 2 g
LIVER [1]: 11.2 g
A/G [1]: 2.2
ALP [1]: 935.2 IU/L
ALT [1]: 39.6 IU/L
AST [1]: 61.8 IU/L
BUN [1]: 19.6 mg/dL
CRE [1]: 0.6 mg/dL
Ca [1]: 10.9 mg/dL
Cl [1]: 104.2 meq/L
DBIL [1]: 0.04 mg/dL
GLC [1]: 210.6 mg/dL
IP [1]: 8.7 mg/dL
K [1]: 4.6 meq/L
LDH [1]: 75.8 IU/L
Na [1]: 141 meq/L
PL [1]: 160.6 mg/dL
RALB [1]: 3.9 g/dL
TBIL [1]: 0.3 mg/dL
TC [1]: 83.8 mg/dL
TG [1]: 101 mg/dL
TP [1]: 5.7 g/dL
gamma-GTP [1]: 1.2 IU/L
TERMINAL_BW [2]: 263.1 g
TERMINAL_BW [3]: 302.6 g
TERMINAL_BW [4]: 359.3 g
APTT [2]: 17 s
Bas [2]: 0%
Eos [2]: 1.2%
Fbg [2]: 212.6 mg/dL
Hb [2]: 14.2 g/dL
Ht [2]: 42.2%
Lym [2]: 84.2%
MCH [2]: 20.7 pg
MCHC [2]: 33.7%
MCV [2]: 61.5 fL
Mono [2]: 4%
Neu [2]: 10.6%
PT [2]: 11.1 s
Plat [2]: 127.1 x10_4/uL
RBC [2]: 687.8 x10_4/ul
Ret [2]: 5.2%
WBC [2]: 114.9 x10_2/uL
APTT [3]: 19.1 s
Bas [3]: 0%
Eos [3]: 1%
Fbg [3]: 211.2 mg/dL
Hb [3]: 15.2 g/dL
Ht [3]: 44.7%
Lym [3]: 81.4%
MCH [3]: 20.3 pg
MCHC [3]: 33.9%
MCV [3]: 59.9 fL
Mono [3]: 4.2%
Neu [3]: 13.4%
PT [3]: 11.4 s
Plat [3]: 110 x10_4/uL
RBC [3]: 746.4 x10_4/ul
Ret [3]: 4.3%
WBC [3]: 102.7 x10_2/uL
APTT [4]: 17 s
Bas [4]: 0%
Eos [4]: 1.6%
Fbg [4]: 215.6 mg/dL
Hb [4]: 15.4 g/dL
Ht [4]: 45.5%
Lym [4]: 82%
MCH [4]: 19.1 pg
MCHC [4]: 33.9%
MCV [4]: 56.4 fL
Mono [4]: 5.4%
Neu [4]: 11%
PT [4]: 11.2 s
Plat [4]: 114.3 x10_4/uL
RBC [4]: 807 x10_4/ul
Ret [4]: 8%
WBC [4]: 105.1 x10_2/uL
KIDNEY_L [2]: 1.1 g
KIDNEY_R [2]: 1.2 g
KIDNEY_TOTAL [2]: 2.3 g
KIDNEY_L [3]: 1.2 g
KIDNEY_R [3]: 1.2 g
KIDNEY_TOTAL [3]: 2.4 g
KIDNEY_L [4]: 1.3 g
KIDNEY_R [4]: 1.3 g
KIDNEY_TOTAL [4]: 2.6 g
LIVER [2]: 11.9 g
LIVER [3]: 13.2 g
LIVER [4]: 13.9 g
A/G [2]: 2.2
ALP [2]: 783 IU/L
ALT [2]: 33.6 IU/L
AST [2]: 62 IU/L
BUN [2]: 20.4 mg/dL
CRE [2]: 0.5 mg/dL
Ca [2]: 10.4 mg/dL
Cl [2]: 105.6 meq/L
DBIL [2]: 0.006 mg/dL
GLC [2]: 197.8 mg/dL
IP [2]: 7.5 mg/dL
K [2]: 4.7 meq/L
LDH [2]: 81.2 IU/L
Na [2]: 141.4 meq/L
PL [2]: 143.6 mg/dL
RALB [2]: 4 g/dL
TBIL [2]: 0.4 mg/dL
TC [2]: 71.4 mg/dL
TG [2]: 108 mg/dL
TP [2]: 5.7 g/dL
gamma-GTP [2]: 0.8 IU/L
A/G [3]: 1.9
ALP [3]: 678.2 IU/L
ALT [3]: 30 IU/L
AST [3]: 61.8 IU/L
BUN [3]: 19 mg/dL
CRE [3]: 0.5 mg/dL
Ca [3]: 10.6 mg/dL
Cl [3]: 105.6 meq/L
DBIL [3]: 0.028 mg/dL
GLC [3]: 204.6 mg/dL
IP [3]: 7.3 mg/dL
K [3]: 4.4 meq/L
LDH [3]: 80.2 IU/L
Na [3]: 142.6 meq/L
PL [3]: 138.6 mg/dL
RALB [3]: 3.8 g/dL
TBIL [3]: 0.4 mg/dL
TC [3]: 64.4 mg/dL
TG [3]: 120.6 mg/dL
TP [3]: 5.9 g/dL
gamma-GTP [3]: 0.6 IU/L
A/G [4]: 1.5
ALP [4]: 606.4 IU/L
ALT [4]: 32 IU/L
AST [4]: 61.2 IU/L
BUN [4]: 20.4 mg/dL
CRE [4]: 0.6 mg/dL
Ca [4]: 10.5 mg/dL
Cl [4]: 107 meq/L
DBIL [4]: 0 mg/dL
GLC [4]: 219.2 mg/dL
IP [4]: 6.1 mg/dL
K [4]: 4.3 meq/L
LDH [4]: 81.2 IU/L
Na [4]: 140.8 meq/L
PL [4]: 148 mg/dL
RALB [4]: 3.7 g/dL
TBIL [4]: 0.2 mg/dL
TC [4]: 76.2 mg/dL
TG [4]: 148.8 mg/dL
TP [4]: 6.1 g/dL
gamma-GTP [4]: 1.6 IU/L
TERMINAL_BW [5]: 236 g
APTT [5]: 17.7 s
Bas [5]: 0%
Eos [5]: 1%
Fbg [5]: 209.2 mg/dL
Hb [5]: 13.4 g/dL
Ht [5]: 39.9%
Lym [5]: 73.4%
MCH [5]: 21.9 pg
MCHC [5]: 33.7%
MCV [5]: 65 fL
Mono [5]: 8.4%
Neu [5]: 17%
PT [5]: 11.1 s
Plat [5]: 134.3 x10_4/uL
RBC [5]: 614.8 x10_4/ul
Ret [5]: 7.6%
WBC [5]: 100.6 x10_2/uL
KIDNEY_L [5]: 1 g
KIDNEY_R [5]: 1.1 g
KIDNEY_TOTAL [5]: 2.1 g
LIVER [5]: 11.5 g
A/G [5]: 2.3
ALP [5]: 965.4 IU/L
ALT [5]: 33 IU/L
AST [5]: 63.8 IU/L
BUN [5]: 17.2 mg/dL
CRE [5]: 0.5 mg/dL
Ca [5]: 11.1 mg/dL
Cl [5]: 104.4 meq/L
DBIL [5]: 0.022 mg/dL
GLC [5]: 198 mg/dL
IP [5]: 7.9 mg/dL
K [5]: 4.5 meq/L
LDH [5]: 103.4 IU/L
Na [5]: 140.6 meq/L
PL [5]: 140.6 mg/dL
RALB [5]: 4 g/dL
TBIL [5]: 0.3 mg/dL
TC [5]: 73 mg/dL
TG [5]: 82.8 mg/dL
TP [5]: 5.7 g/dL
gamma-GTP [5]: 2.4 IU/L
TERMINAL_BW [6]: 263.9 g
TERMINAL_BW [7]: 307 g
TERMINAL_BW [8]: 352 g
APTT [6]: 17.6 s
Bas [6]: 0%
Eos [6]: 0.8%
Fbg [6]: 219.6 mg/dL
Hb [6]: 14.1 g/dL
Ht [6]: 41.5%
Lym [6]: 79.6%
MCH [6]: 21.1 pg
MCHC [6]: 34.1%
MCV [6]: 62 fL
Mono [6]: 5.2%
Neu [6]: 14.2%
PT [6]: 11.2 s
Plat [6]: 133.9 x10_4/uL
RBC [6]: 669.2 x10_4/ul
Ret [6]: 5.7%
WBC [6]: 101.8 x10_2/uL
APTT [7]: 16.7 s
Bas [7]: 0%
Eos [7]: 1%
Fbg [7]: 217.6 mg/dL
Hb [7]: 15 g/dL
Ht [7]: 43.7%
Lym [7]: 80.6%
MCH [7]: 20.2 pg
MCHC [7]: 34.3%
MCV [7]: 58.9 fL
Mono [7]: 5.6%
Neu [7]: 12.8%
PT [7]: 11.3 s
Plat [7]: 127.7 x10_4/uL
RBC [7]: 742.4 x10_4/ul
Ret [7]: 4.2%
WBC [7]: 122.9 x10_2/uL
APTT [8]: 17.2 s
Bas [8]: 0%
Eos [8]: 1.6%
Fbg [8]: 212 mg/dL
Hb [8]: 15.7 g/dL
Ht [8]: 46.9%
Lym [8]: 80.4%
MCH [8]: 18.8 pg
MCHC [8]: 33.6%
MCV [8]: 55.9 fL
Mono [8]: 6%
Neu [8]: 12.4%
PT [8]: 11.3 s
Plat [8]: 126.5 x10_4/uL
RBC [8]: 839 x10_4/ul
Ret [8]: 7.1%
WBC [8]: 104.7 x10_2/uL
KIDNEY_L [6]: 1.1 g
KIDNEY_R [6]: 1.1 g
KIDNEY_TOTAL [6]: 2.2 g
KIDNEY_L [7]: 1.2 g
KIDNEY_R [7]: 1.2 g
KIDNEY_TOTAL [7]: 2.3 g
KIDNEY_L [8]: 1.3 g
KIDNEY_R [8]: 1.3 g
KIDNEY_TOTAL [8]: 2.6 g
LIVER [6]: 12.6 g
LIVER [7]: 13.1 g
LIVER [8]: 13.5 g
A/G [6]: 2.3
ALP [6]: 771.4 IU/L
ALT [6]: 33.2 IU/L
AST [6]: 63.4 IU/L
BUN [6]: 20.8 mg/dL
CRE [6]: 0.5 mg/dL
Ca [6]: 10.6 mg/dL
Cl [6]: 104.6 meq/L
DBIL [6]: 0 mg/dL
GLC [6]: 197 mg/dL
IP [6]: 8.1 mg/dL
K [6]: 4.7 meq/L
LDH [6]: 95 IU/L
Na [6]: 141.6 meq/L
PL [6]: 158.2 mg/dL
RALB [6]: 4.1 g/dL
TBIL [6]: 0.4 mg/dL
TC [6]: 76.2 mg/dL
TG [6]: 156.4 mg/dL
TP [6]: 5.8 g/dL
gamma-GTP [6]: 1.4 IU/L
A/G [7]: 2
ALP [7]: 804.6 IU/L
ALT [7]: 36 IU/L
AST [7]: 59.2 IU/L
BUN [7]: 19.2 mg/dL
CRE [7]: 0.5 mg/dL
Ca [7]: 11 mg/dL
Cl [7]: 105.2 meq/L
DBIL [7]: 0.028 mg/dL
GLC [7]: 207.4 mg/dL
IP [7]: 7.4 mg/dL
K [7]: 4.2 meq/L
LDH [7]: 103.2 IU/L
Na [7]: 142.2 meq/L
PL [7]: 150.8 mg/dL
RALB [7]: 3.9 g/dL
TBIL [7]: 0.4 mg/dL
TC [7]: 73 mg/dL
TG [7]: 116.8 mg/dL
TP [7]: 5.9 g/dL
gamma-GTP [7]: 0.6 IU/L
A/G [8]: 1.6
ALP [8]: 710 IU/L
ALT [8]: 30.2 IU/L
AST [8]: 64 IU/L
BUN [8]: 20 mg/dL
CRE [8]: 0.6 mg/dL
Ca [8]: 10.4 mg/dL
Cl [8]: 107 meq/L
DBIL [8]: 0.002 mg/dL
GLC [8]: 205.6 mg/dL
IP [8]: 6.4 mg/dL
K [8]: 4.3 meq/L
LDH [8]: 96.4 IU/L
Na [8]: 140.4 meq/L
PL [8]: 141.4 mg/dL
RALB [8]: 3.8 g/dL
TBIL [8]: 0.3 mg/dL
TC [8]: 69.4 mg/dL
TG [8]: 113.6 mg/dL
TP [8]: 6.1 g/dL
gamma-GTP [8]: 1.4 IU/L
